Laboratory results reported in patent US20110257110A1, “Composition comprising a glycoside of a mono- or diacylglycerol compound and an oil rich in n-3 polyunsaturated fatty acids, a method of producing the composition and use of the composition” (HYBEN VITAL LICENS APS, priority 2008, published 2011).

Tests used:
[1] = tested on: human peripheral blood leukocytes; assay: chemiluminescence of peripheral blood leukocytes (oxidative burst response); type: cell-based; conditions: fairly low concentrations
From the text: Chemiluminescence is a measure of oxidative burst response. […] As the actual tissue damage caused by inflammatory cells such as PMN's and monocytes/macrophages, through the release of proteolytic and hydrolytic enzymes as well as toxic reactive oxygen radicals are activated in the tissue and joints, the isolated compound should be a potent inhibitor of the oxidative burst response of the human peripheral blood polymorphonuclear leukocytes, the most important and abundant inflammatory cells. It is therefore believed that the glycosides of mono- or diacylglycerol compounds, especially GOPO, are responsible for the anti inflammatory effects of rose hip extracts.

[2] = aqueous solutions as described in WO03/43613, storage; cited from earlier work
mononuclear leucocytes = conditions: WO 03/043613 A1; cited from earlier work
[3] = tested on: polymorphonuclear leucocytes; conditions: WO 03/043613 A1; cited from earlier work

Question: With `CC/C=C\C/C=C\C/C=C\CCCCCCCC(=O)OCC(CO[C@@H]1O[C@H](CO)[C@H](O)[C@H](O)[C@H]1O)OC(=O)CCCCCCC/C=C\C/C=C\C/C=C\CC` (stereo partly drawn) [GOPO, 3-β-D-galactopyranosyloxy-2-(octadeca-9Z,12Z,15Z-trienoyloxy)propanyl octadeca-9Z,12Z,15Z-trienoate] as the compound, how does the “chemiluminescence of human peripheral blood leukocytes” value [1] read?
Answer: inhibited

Question: What about the “stability in aqueous solutions” value [2] of the same compound?
Answer: lack stability

Question: What about the “chemotaxis of mononuclear leucocytes” value (mononuclear leucocytes) of the same compound?
Answer: alleviating

Question: And the “chemiluminescence of polymorphonuclear leucocytes” value [3]?
Answer: alleviating
